This note sets out measurements from ChEMBL document CHEMBL3769389, “Development of a potent 2-oxoamide inhibitor of secreted phospholipase A2 guided by molecular docking calculations and molecular dynamics simulations” (Bioorg Med Chem, 2016).

In assay [1] the target is T1, Phospholipase A2, membrane associated (Homo sapiens) (UniProt P14555).
T1 sequence (whole entry): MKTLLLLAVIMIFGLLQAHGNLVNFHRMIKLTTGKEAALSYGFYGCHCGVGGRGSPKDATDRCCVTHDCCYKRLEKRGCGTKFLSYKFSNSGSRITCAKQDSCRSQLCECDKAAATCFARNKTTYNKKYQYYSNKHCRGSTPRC
Briefly: Inhibition of human group 2A secreted phospholipase A2 at 10 uM by fluorescence assay.

In assay [2] the target is T2, Group 10 secretory phospholipase A2 (Homo sapiens) (UniProt O15496).
T2 sequence (whole entry): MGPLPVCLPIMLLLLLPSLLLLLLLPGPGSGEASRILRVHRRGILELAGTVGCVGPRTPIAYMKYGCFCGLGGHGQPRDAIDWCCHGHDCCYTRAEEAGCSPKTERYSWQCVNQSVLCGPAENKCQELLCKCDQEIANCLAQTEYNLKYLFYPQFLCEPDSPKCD
In words: Inhibition of human group 10 secreted phospholipase A2 at 10 uM by fluorescence assay.

Assay [3] addresses T3, Phospholipase A2 group V (Homo sapiens) (UniProt P39877).
T3 sequence (whole entry): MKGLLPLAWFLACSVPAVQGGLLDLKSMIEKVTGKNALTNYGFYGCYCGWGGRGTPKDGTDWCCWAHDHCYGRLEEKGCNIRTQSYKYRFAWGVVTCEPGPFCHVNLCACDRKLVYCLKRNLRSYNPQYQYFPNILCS
In words: Inhibition of human group 5 secreted phospholipase A2 at 10 uM by fluorescence assay.

Assay [4] addresses Phospholipase A2 (Homo sapiens) (UniProt P04054). In words: Inhibition of human group 1B secreted phospholipase A2 at 10 uM by fluorescence assay.
In assay [5] the target is T4, Phospholipase A2, membrane associated (Mus musculus) (UniProt P31482).
T4 sequence (whole entry): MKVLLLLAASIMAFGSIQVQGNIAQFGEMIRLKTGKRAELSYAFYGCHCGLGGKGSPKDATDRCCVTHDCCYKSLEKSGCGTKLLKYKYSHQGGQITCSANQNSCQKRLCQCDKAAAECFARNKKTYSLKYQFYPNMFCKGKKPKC
In words: Inhibition of mouse group 2A secreted phospholipase A2 at 1 uM by fluorescence assay.

Assay [6] concerns the target T1, Phospholipase A2, membrane associated (Homo sapiens). In words: Inhibition of human group 2A secreted phospholipase A2 at 1 uM by fluorescence assay.
In assay [7] the target is T4, Phospholipase A2, membrane associated (Mus musculus). In words: Potency index, ratio of GK126 IC50 to compound IC50 for mouse group 2A secreted phospholipase A2.
Assay [8] deals with T2, Group 10 secretory phospholipase A2 (Homo sapiens). In words: Inhibition of human group 10 secreted phospholipase A2 assessed as remaining activity at 1000 nM by fluorescence assay.
Assay [9] addresses T5, Group IID secretory phospholipase A2 (Mus musculus) (UniProt Q9WVF6).
T5 sequence (whole entry): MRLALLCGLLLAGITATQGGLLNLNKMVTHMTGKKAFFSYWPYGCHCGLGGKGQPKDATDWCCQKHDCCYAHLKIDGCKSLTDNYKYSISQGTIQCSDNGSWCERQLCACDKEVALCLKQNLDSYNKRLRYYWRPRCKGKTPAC
In words: Inhibition of mouse 2D secreted phospholipase A2 assessed as remaining activity at 1000 nM by fluorescence assay.

The target of assay [10] is T1, Phospholipase A2, membrane associated (Homo sapiens). In words: Potency index, ratio of GK126 IC50 to compound IC50 for human group 2A secreted phospholipase A2.
Assay [11] has as its target Phospholipase A2 (Homo sapiens) (UniProt P04054). In words: Inhibition of human group 1B secreted phospholipase A2 assessed as remaining activity at 1000 nM by fluorescence assay.
A further assay addresses T6, Phospholipase A2 group V (Homo sapiens, UniProt P39877).
T6 sequence (P39877 whole entry): T3 sequence (whole entry)
In words: Inhibition of human group 5 secreted phospholipase A2 by fluorescence assay.

For assay [12], the target named is T7, Group IIE secretory phospholipase A2 (Homo sapiens) (UniProt Q9NZK7).
T7 sequence (whole entry): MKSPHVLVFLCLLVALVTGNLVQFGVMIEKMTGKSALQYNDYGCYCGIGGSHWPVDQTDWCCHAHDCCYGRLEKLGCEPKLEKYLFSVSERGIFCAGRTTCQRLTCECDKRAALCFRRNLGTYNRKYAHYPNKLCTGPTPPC
Briefly: Inhibition of human group 2E secreted phospholipase A2 assessed as remaining activity at 1000 nM by fluorescence assay.

For a further assay, the species on record is Homo sapiens. Briefly: Selectivity ratio of IC50 for human group 5 secreted phospholipase A2 to human group 2A secreted phospholipase A2.
The target of assay [13] is T8, Phospholipase A2 group V (Mus musculus) (UniProt P97391).
T8 sequence (whole entry): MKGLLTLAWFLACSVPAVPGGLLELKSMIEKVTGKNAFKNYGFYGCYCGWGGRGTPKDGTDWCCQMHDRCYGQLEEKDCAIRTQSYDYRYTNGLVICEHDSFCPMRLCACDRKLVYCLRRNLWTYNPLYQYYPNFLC
Briefly: Inhibition of mouse group 5 secreted phospholipase A2 assessed as remaining activity at 1000 nM by fluorescence assay.

Assay [14] has as its target T9, Group IIF secretory phospholipase A2 (Homo sapiens) (UniProt Q9BZM2).
T9 sequence (whole entry): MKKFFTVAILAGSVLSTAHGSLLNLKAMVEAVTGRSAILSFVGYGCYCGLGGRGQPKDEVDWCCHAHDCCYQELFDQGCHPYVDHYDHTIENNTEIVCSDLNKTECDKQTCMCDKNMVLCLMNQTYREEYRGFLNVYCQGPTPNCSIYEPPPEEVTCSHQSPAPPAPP
Briefly: Inhibition of human group 2F secreted phospholipase A2 assessed as remaining activity at 1000 nM by fluorescence assay.

The target of assay [15] is T10, Group 10 secretory phospholipase A2 (Mus musculus) (UniProt Q9QXX3).
T10 sequence (whole entry): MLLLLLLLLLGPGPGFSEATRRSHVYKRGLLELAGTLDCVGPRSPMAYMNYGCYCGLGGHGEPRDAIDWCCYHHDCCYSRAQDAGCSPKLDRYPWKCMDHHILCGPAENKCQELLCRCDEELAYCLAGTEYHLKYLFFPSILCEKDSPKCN
In words: Inhibition of mouse group 10 secreted phospholipase A2 assessed as remaining activity at 1000 nM by fluorescence assay.

Assay [16] concerns the target T11, Phospholipase A2, membrane associated (Mus musculus, UniProt P31482).
T11 sequence (P31482 whole entry): T4 sequence (whole entry)
In words: Inhibition of mouse group 2A secreted phospholipase A2 by fluorescence assay.

Assay [17] concerns the target T12, Phospholipase A2, membrane associated (Homo sapiens, UniProt P14555).
T12 sequence (P14555 whole entry): T1 sequence (whole entry)
In words: Inhibition of human group 2A secreted phospholipase A2 by fluorescence assay.

Sequence of Phospholipase A2 (Homo sapiens) (P04054 23-148 limits assumed): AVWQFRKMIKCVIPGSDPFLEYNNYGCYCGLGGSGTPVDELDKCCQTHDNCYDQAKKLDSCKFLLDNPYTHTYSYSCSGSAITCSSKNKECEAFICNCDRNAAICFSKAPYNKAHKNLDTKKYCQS

`CC(C)[C@H](NC(=O)C(=O)CCCCc1ccc(-c2ccccc2)cc1)C(=O)O`: the inhibition turned out to be 21% in assay [1], 54% in assay [2], 50% in [3] and 30% in assay [4].
Take `CCCCCCCCCCCCCCC(=O)C(=O)N[C@@H](CCC(=O)O)C(=O)OCC`: the inhibition in [5] and in assay [6] was less than 25% in each case.
For the compound `CC(C)[C@H](NC(=O)C(=O)CCCCc1ccccc1)C(=O)O`, the inhibition in assay [1] turned out to be 11%; in assay [2], 40%; in assay [3], 40%; in assay [4], 56%.
For the compound `CCCCCCCCCCCCCCC(=O)C(=O)N1CCC[C@H]1C(=O)O`, the inhibition in [5] and in assay [6] was less than 25% throughout.
For the compound `CC(C)[C@H](NC(=O)C(=O)CCCCc1ccc2ccccc2c1)C(=O)O`, the inhibition in assay [1] stood at 27%; in assay [2], 51%; in [3], 26%; in assay [4] it was 20%.
Consider `CCCCCCCCCCCCCCC(=O)C(=O)N[C@@H](CCC(=O)O)C(=O)O`, for which the inhibition in assay [5] and in assay [6] was less than 25% in each case.
Regarding `CC(C)[C@H](NC(=O)C(=O)c1ccc2ccccc2c1)C(=O)O`, the inhibition worked out at 50% in assay [1], 56% in [2], 53% in assay [3] and 50% in [4].
With `CCCCCCCCCCCCCCC(=O)C(=O)N[C@H](C(=O)O)C(C)(C)C`, the inhibition in [5] and in assay [6] was less than 25% throughout.
As to `CCCCCCCCCCCCCCC(=O)C(=O)N[C@H](C(=O)O)C(C)C`, the Ratio IC50 in assay [7] was 2; in assay [10], 2; in the assay listed under Homo sapiens it was 10. Moreover, the Activity stood at 95% in assay [8]; 99% in assay [9]; 98% in assay [11]; 93% in assay [12]; 90% in assay [13]; 94% in [14]. The Activity in assay [15] was found to be 98%. The values for the IC50 (against Phospholipase A2 group V; in assay [16]; in assay [17]) were 1200 nM, 68 nM and 143 nM, respectively.
`CCCCCCCCCCCCCCC(=O)C(=O)NC(C)(C)C(=O)O`: the inhibition in assay [5] and in [6] was less than 25% in each case.
As for `CCCCCCCCCCCCCCC(=O)C(=O)N[C@@H](C)C(=O)O`, the inhibition in [5] and in [6] was less than 25% each time.
